Reference: patent EP1057825A1, “ISOFLAVANE DERIVATIVES AND IMMUNOPOTENTIATING COMPOSITIONS CONTAINING THE SAME” (SHIONOGI & CO., LTD., priority 1998, dated 1999)

How the values were obtained:
[1] = test system: mouse spleen cells; experiment: Action on the blastogenesis of mouse spleen cells (ConA-stimulated, MTT reduction method); format: cell-based, BALB/c mouse; conditions: Mus musculus, 72 h, ConA 1 µg/ml, 3 days, rate against no test compound = one
Method: Serial two-fold dilutions (100 µl/well) with 10% FBS of test compounds which are dissolved in a dimethyl sulfoxide (DMSO) solution are obtained on a 96-well microplate, and used as test samples.
The spleen of a BALB/c mouse is aseptically isolated, and gently ground on a wire mesh with dropwise addition of sterilzed saline. The filtrate is passed through a nylon mesh (Becton Dickinson; pore size: 70 µm), thereby preparing a unicellular suspension.
(§1) After being washed twice with sterilized saline, the spleen cells are suspended in RPMI1460 containing 10% FCS and containing 1 µg/ml of concanavalin A (abbreviated as ConA: Sigma, U.S.) as well as an antibiotic (Sigma: Antibiotic Antimycotic), and dispensed into a 96-well microplate, in which 100 µl each of diluted test samples are previously dispensed, in amounts of 3 × 10^5 cells/100 µl/well.
Thereafter, culturing is carried out under 5% carbon dioxide gas at 37°C for 3 days, and then the blastogenesis of lymphocytes is measured by an MTT reduction method [Mosmann T, Journal of Immunological Method, vol. 65, p. 55, 1983]. The blastogenesis rate can be quantitated as a rate against the blastogenesis of those not having test compounds added thereto, which is defined as one. The presence of an immunoactivating action can be determined if the blastogenesis rate exceeds one.
Serial two-fold dilutions (100 µl/well) with RPMI1640 (Nikken Biomedical Laboratory) containing 10% FBS (bovine fetal serum: Dainippon Pharmaceutical Co., Ltd.) of test compounds which were dissoloved in a dimethylsulfoxide (DMSO) solution were obtained on a 96-well microplate, and used as test samples.
The spleen of a BALB/c mouse (a 6 week-old female) was aseptically isolated, and gently ground on a wire mesh with dropwise addition of sterilzed saline. The filtrate was passed through a nylon mesh (Becton Dickinson; pore size: 70 µm), thereby preparing a unicellular suspension.
as §1, with “cells were” for “cells are”, “samples had” for “samples are”, “previously been” for “previously”, “of 3×10^5” for “of 3 × 10^5”
Thereafter, culturing was carried out under 5% carbon dioxide gas at 37°C for 3 days, and then the blastogenesis of lymphocytes was measured by an MTT reduction method [Mosmann T, Journal of Immunological Method, vol. 65, p. 55, 1983]. The results are shown in [Table 4].

[2] = test system: mouse bone marrow cells; experiment: Metabolism promoting action on mouse bone marrow cells (mitochondrial metabolism activity, MTT reduction method); format: cell-based, BALB/c mouse; conditions: Mus musculus, Bone marrow cell, 120 h, 5 days, magnitude of metabolism, no test compound = one; for activity at 0.39 µg/mL: Test compound concentration 0.39 µg/ml; for activity at 0.78 µg/mL: Test compound concentration 0.78 µg/ml; for activity at 1.56 µg/mL: Test compound concentration 1.56 µg/ml; for activity at 3.13 µg/mL: Test compound concentration 3.13 µg/ml; for activity at 6.25 µg/mL: Test compound concentration 6.25 µg/ml; for activity at 12.5 µg/mL: Test compound concentration 12.5 µg/ml
Description: The presence of an immunoactivating action can be determined if the magnitude of metabolism exceeds one, where the cellular metabolism of cells not having test compounds added thereto is defined as one.

SMILES	activity at 0.1 µg/mL ([1]; concentration of additions in medium 0.1 μg/ml) [%]	activity at 0.2 µg/mL ([1]; concentration of additions in medium 0.2 μg/ml) [%]	activity at 0.39 µg/mL ([1]; concentration of additions in medium 0.39 μg/ml) [%]	activity at 0.78 µg/mL ([1]; concentration of additions in medium 0.78 μg/ml) [%]	activity at 1.56 µg/mL ([1]; concentration of additions in medium 1.56 μg/ml) [%]	activity at 3.13 µg/mL ([1]; concentration of additions in medium 3.13 μg/ml) [%]	activity at 6.25 µg/mL ([1]; concentration of additions in medium 6.25 μg/ml) [%]	activity at 0.39 µg/mL [2] [%]	activity at 0.78 µg/mL [2] [%]	activity at 1.56 µg/mL [2] [%]	activity at 3.13 µg/mL [2] [%]	activity at 6.25 µg/mL [2] [%]	activity at 12.5 µg/mL [2] [%]
COc1cc2c(c(OC)c1CC=C(C)C)CC(c1ccc(O)c(CC=C(C)C)c1O)CO2 (stereo not shown) [A-2, 4-[3,4-dihydro-5,7-dimethoxy-6-(3-methyl-2-butenyl)-2H-1-benzopyran-3-yl]-2-(3-methyl-2-butenyl)-1,3-benzenediol]	117	112	137	184	234	121	26	–	–	–	–	–	–
CCCCCCOc1cc2c(c(OC)c1CCC(C)C)CC(c1ccc(O)c(CCC(C)C)c1OCCCCCC)CO2 (stereo not shown) [A-14]	–	–	–	–	–	–	–	134	149	166	184	199	209
CCCCCCCCCOc1ccc(C2COc3cc(O)c(CCC(C)C)c(OC)c3C2)c(OCCCCCCCCC)c1CCC(C)C (stereo not shown) [A-17]	–	–	–	–	–	–	–	116	117	126	164	177	156
CCCCCCCCCOc1cc2c(c(OC)c1CCC(C)C)CC(c1ccc(O)c(CCC(C)C)c1OCCCCCCCCC)CO2 (stereo not shown) [A-18]	–	–	–	–	–	–	–	103	102	109	115	119	114
COc1c2c(cc(OC(C)C)c1CCC(C)C)OCC(c1ccc(O)c(CCC(C)C)c1O)C2 (stereo not shown) [A-19]	–	–	–	–	–	–	–	–	–	120	128	126	53
COc1c(CCC(C)C)c(O)cc2c1CC(c1ccc(OC(C)C)c(CCC(C)C)c1OC(C)C)CO2 (stereo not shown) [A-20]	–	–	–	–	–	–	–	–	–	135	134	116	94
COc1c2c(cc(OC(C)C)c1CCC(C)C)OCC(c1ccc(O)c(CCC(C)C)c1OC(C)C)C2 (stereo not shown) [A-21]	–	–	–	–	–	–	–	–	–	131	122	89	44
COc1c(CCC(C)C)c(O)cc2c1CC(c1ccc(O)c(CCC(C)C)c1OC(C)C)CO2 (stereo not shown) [A-22]	–	–	–	–	–	–	–	–	–	186	176	40	50
COc1cc(OC)c2c(c1)OCC(c1ccc(OCc3ccccc3)cc1OCc1ccccc1)C2 (stereo not shown) [B-1]	–	–	–	–	–	–	–	114	116	136	157	188	178
COc1cc(OC)c2c(c1)OCC(c1ccc(O)cc1O)C2 (stereo not shown) [B-2]	–	–	–	–	–	–	–	106	116	110	146	293	100
COc1cc(OC)c2c(c1)OCC(c1ccc(OCC=C(C)C)cc1OCC=C(C)C)C2 (stereo not shown) [B-3]	–	–	–	–	–	–	–	114	111	110	162	183	204
COc1cc(OC)c2c(c1)OCC(c1ccc(O)c(CC=C(C)C)c1O)C2 (stereo not shown) [B-4]	–	–	–	–	–	–	–	110	115	125	176	258	44
COc1cc(OC)c2c(c1)OCC(c1ccc(O)cc1OCC=C(C)C)C2 (stereo not shown) [B-5]	–	–	–	–	–	–	–	100	115	165	245	205	31
COc1cc(OC)c2c(c1)OCC(c1ccc(O[Si](C)(C)C(C)(C)C)cc1O[Si](C)(C)C(C)(C)C)C2 (stereo not shown) [B-6]	–	–	–	–	–	–	–	100	103	120	144	173	156
COc1cc(O)c2c(c1)OCC(c1ccc(OCc3ccccc3)cc1OCc1ccccc1)C2 (stereo not shown) [B-7]	–	–	–	–	–	–	–	99	100	125	141	132	67
COc1ccc(C2COc3cc(OC)cc(OC)c3C2)c(OC)c1 (stereo not shown) [B-8]	–	–	–	–	–	–	–	94	91	90	90	118	83
COc1cc2c(c(OC)c1CC=C(C)C)CC(c1ccc(O)cc1O)CO2 (stereo not shown) [B-9]	–	–	–	–	–	–	–	110	133	150	165	110	25
COc1cc2c(c(OC)c1C=CC(C)C)CC(c1ccc(O)cc1O)CO2 (stereo not shown) [B-10]	–	–	–	–	–	–	–	118	145	204	119	45	23
COc1cc2c(c(OC)c1CCC(C)C)CC(c1ccc(O)cc1O)CO2 (stereo not shown) [B-11]	–	–	–	–	–	–	–	102	129	125	139	88	32
COc1cc2c(c(OC)c1CC=C(C)C)CC(c1ccc(O[Si](C)(C)C(C)(C)C)cc1O[Si](C)(C)C(C)(C)C)CO2 (stereo not shown) [B-12]	–	–	–	–	–	–	–	–	–	122	122	129	136
COc1cc2c(c(OC)c1CC=C(C)C)CC(c1ccc(OCc3ccccc3)cc1OCc1ccccc1)CO2 (stereo not shown) [B-13]	–	–	–	–	–	–	–	–	–	121	145	152	162
